Laboratory results reported in patent publication US20260234139A1, “PGDH INHIBITORS AND METHODS OF MAKING AND USING” (Epirium Bio Inc., priority 2023, published 2026).

What was measured:
A549 = A549 EC50 (cell assay, method not described); type: cell-based
15-PGDH/HPGD = molecular target: T1, 15-PGDH/HPGD (Homo sapiens, UniProt P15428); test: hPGDH inhibitor screening biochemical assay; details: 10 nM enzyme, 15 μM Prostaglandin E2, 0.25 mM NAD, fluorescence ex/em 340/485 nm
T1 construct: purchased R&D System 5660-DH
T1 sequence (P15428 1-266): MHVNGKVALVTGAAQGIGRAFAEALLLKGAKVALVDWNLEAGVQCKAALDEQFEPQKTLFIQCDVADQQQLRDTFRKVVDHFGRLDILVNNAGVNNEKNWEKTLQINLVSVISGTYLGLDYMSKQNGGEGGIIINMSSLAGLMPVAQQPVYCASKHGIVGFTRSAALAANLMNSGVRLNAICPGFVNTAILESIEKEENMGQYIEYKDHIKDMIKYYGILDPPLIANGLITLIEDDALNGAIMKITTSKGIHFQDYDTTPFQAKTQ
Experimental: A hydroxyprostaglandin dehydrogenase inhibition screening biochemical assay can be performed to assess the synthesized inhibitors provided herein. Provided herein is an exemplary biochemical assay for hPGDH inhibitor screening.
The in vitro biochemical assay can be performed in white, 384 plates in total 20 μl reaction volume consisting of 10 nM of 15-PGDH/HPGD (R&D System #5660-DH), 15 μM Prostaglandin E2 (Sigma, Cat #P5640-10 MG) and 0.25 mM B-Nicotinamide adenine dinucleotide sodium salt (Sigma, Cat #N0632-5G) made in reaction buffer (50 mM Tris-HCl, pH 7.5, 0.01% Tween 20) at 10-point dose response curve for test/tool compounds. Briefly, 5 μl (4×) of compounds solution and 5 μl (final concentration, 10 nM) of enzyme solution is added to white 384 well plates and incubated for 10 mins at 37° C. 5 μl (4×) of Prostaglandin E2 and 5 μl (4×) of β-Nicotinamide adenine dinucleotide sodium salt is added to the wells and incubated for 10 mins at room temperature. Fluorescence is recorded at ex/em=340 nm/485 nm.

Compound	EC50 (A549; Homo sapiens, A549, A549) [nM]	IC50 (15-PGDH/HPGD) [nM]	EC50 (A549; A549) [nM]
O[C@H](COC1CC1)c1cnc2c(cnn2-c2cccc(-c3nnc[nH]3)c2)c1 [Compound 37B]	< 100	< 100	–
CC(C)(C)OC[C@H](O)c1cnc2c(cnn2-c2cccc(-c3nnc[nH]3)c2)c1 [Compound 32A]	≥ 1000	< 100	–
CC(C)(O)C[C@H](O)c1cnc2c(cnn2-c2cccc(-c3nnc[nH]3)c2)c1 [Compound 43B]	< 100	< 100	–
O=C(O)c1ccc(-n2ncc3cc([C@@H](O)COCC4CC4)cnc32)cc1 [Compound 107A]	< 100	< 100	–
CN(C)C[C@@H](O)c1cnc2c(cnn2-c2cccc(-c3nnc[nH]3)c2)c1 [Compound 25B]	≥ 1000	100 to 1000	–
CC(C)OCC(O)c1cnc2c(cnn2-c2ccc(CCC(=O)O)c(F)c2)c1 (stereo in doubt) [Compound 70A, (R)-3-(2-fluoro-4-(5-(1-hydroxy-2-isopropoxyethyl)-1H-pyrazolo[3,4-b]pyridin-1-yl)phenyl) propanoic acid]	< 100	< 100	–
O=C(O)c1ccc(-n2ccc3nc([C@@H](O)COCC4CC4)cnc32)cc1 [Compound 112A]	≥ 1000	< 100	–
O=C(O)c1ccc(-n2ccc3nc([C@H](O)COCC4CC4)cnc32)cc1 [Compound 112B]	100 to 1000	< 100	–
CC(C)(C)OC[C@@H](O)c1cnc2c(cnn2-c2cccc(-c3nnc[nH]3)c2)c1 [Compound 32B]	< 100	< 100	–
CCCC(F)(F)[C@@H](O)c1cnc2c(ccn2-c2cccc(-c3nnc[nH]3)c2)n1 [Compound 35A]	< 100	< 100	–
C[C@H](OC1CCC1)[C@H](O)c1cnc2c(cnn2-c2ccc(C(=O)O)cc2)c1 [Compound 108C]	100 to 1000	100 to 1000	–
CC(C)C[C@H](O)C(O)c1cnc2c(ccn2-c2cccc(-c3nnc[nH]3)c2)c1 (stereo in doubt) [Compound 3B, (1S,2S)-4-methyl-1-[1-[3-(4H-1,2,4-triazol-3-yl)phenyl]pyrrolo[2,3-b]pyridin-5-yl]pentane-1,2-diol]	–	< 100	< 100
CC(C)OC[C@@H](O)c1cnc2c(cnn2-c2ccc(C(=O)O)cc2)c1 [Compound 48B]	< 100	< 100	–
CN(C)C[C@H](O)c1cnc2c(cnn2-c2cccc(-c3nnc[nH]3)c2)c1 [Compound 25A]	≥ 1000	100 to 1000	–
O[C@H](COC1CCC1)c1cnc2c(cnn2-c2cccc(-c3nnc[nH]3)c2)c1 [Compound 24B]	< 100	< 100	–
CC(C)OC[C@@H](O)c1cnc2c(ccn2-c2cccc(-c3nnc[nH]3)c2)n1 [Compound 20A]	< 100	< 100	–
CN(C)C(=O)c1ccc(-n2ncc3cc([C@@H](O)COC4CCC4)cnc32)cc1 [Compound 80B]	≥ 1000	≥ 1000	–
CC(C)OCC(O)c1cnc2c(cnn2-c2ccc(CCC(=O)O)c(F)c2)c1 (stereo in doubt) [Compound 70B, (S)-3-(2-fluoro-4-(5-(1-hydroxy-2-isopropoxyethyl)-1H-pyrazolo[3,4-b]pyridin-1-yl)phenyl) propanoic acid]	100 to 1000	< 100	–
CCCC[C@@H](O)c1cnc2c(ccn2-c2cccc(-c3nnc[nH]3)c2)n1 [Compound 2B]	100 to 1000	< 100	–
O[C@H](COC1CCC1)c1cnc2c(cnn2-c2cncc(-c3nnc[nH]3)c2)c1 [Compound 117B]	< 100	< 100	–
CC(C)OC[C@H](O)c1cnc2c(cnn2-c2ccc(CC(=O)O)cc2)c1 [Compound 71B]	≥ 1000	≥ 1000	–
O=C(O)c1ccc(-n2ncc3cc(C(O)C4CC(F)(F)C4)cnc32)cc1 (single isomer, unassigned) [Compound 45A]	100 to 1000	< 100	–
CC(C)NC[C@H](O)c1cnc2c(ccn2-c2cccc(-c3nnc[nH]3)c2)n1 [Compound 22A]	≥ 1000	≥ 1000	–

Compound	EC50 (A549; Homo sapiens, A549, A549) [nM]	IC50 (15-PGDH/HPGD) [nM]	EC50 (A549; A549) [nM]
CC(F)(F)[C@H](O)c1cnc2c(ccn2-c2cccc(-c3nnc[nH]3)c2)c1 [Compound 5B]	100 to 1000	100 to 1000	–
CNC(=O)c1ccc(-n2ncc3cc([C@H](O)COC4CCC4)cnc32)cc1 [Compound 84A]	< 100	< 100	–
CCOC1([C@H](O)c2cnc3c(cnn3-c3ccc4nc(N5CCOCC5)nn4c3)c2)CC1 [Compound 62A]	≥ 1000	≥ 1000	–
O=C(O)c1ccc(-n2ncc3cc(C(O)C4CC(F)(F)C4)cnc32)cc1 (stereo in doubt) [Compound 45B, (S)-4-(5-((3,3-difluorocyclobutyl)(hydroxy)methyl)-1H-pyrazolo[3,4-b]pyridin-1-yl)benzoic acid]	< 100	< 100	–
O[C@@H](c1cnc2c(cnn2-c2cccc(-c3nnc[nH]3)c2)c1)[C@H]1CCOC1 [Compound 68C]	< 100	< 100	–
C[C@H]1C[C@H](OC[C@@H](O)c2cnc3c(cnn3-c3ccc(C(=O)O)cc3)c2)C1 [Compound 127D]	< 100	< 100	–
COC(C)(C)C[C@@H](O)c1cnc2c(ccn2-c2cccc(-c3nnc[nH]3)c2)c1 [Compound 54A]	< 100	< 100	–
O[C@@H](c1cnc2c(cnn2-c2cccc(-c3nnc[nH]3)c2)c1)C1CC2CC2C1 (stereo partly drawn) [Compound 50A]	< 100	< 100	–
CCC1(OC[C@@H](O)c2cnc3c(cnn3-c3ccc(C(=O)O)cc3)c2)CC1 [Compound 93B]	< 100	< 100	–
C[C@H]1C[C@@H](OC[C@H](O)c2cnc3c(cnn3-c3ccc(C(=O)O)cc3)c2)C1 [Compound 127A]	≥ 1000	< 100	–
O=C(O)CCc1ccc(-n2ncc3cc([C@@H](O)COC4CCCC4)cnc32)cc1F [Compound 88A]	≥ 1000	100 to 1000	–
O[C@H](c1cnc2c(cnn2-c2cccc(-c3nnc[nH]3)c2)c1)C1CC2CC2C1 (stereo partly drawn) [Compound 50B]	< 100	< 100	–
Cc1nn(-c2ccc(C(=O)O)cc2)c2ncc([C@@H](O)COC3CC3)cc12 [Compound 126A]	100 to 1000	< 100	–
CC(C)(OCC(F)F)[C@H](O)c1cnc2c(cnn2-c2cccc(-c3nnc[nH]3)c2)c1 [Compound 61B]	100 to 1000	≥ 1000	–
O[C@@H](COC1CCC1)c1cnc2c(cnn2-c2cncc(-c3nnc[nH]3)c2)c1 [Compound 117A]	< 100	< 100	–
CC(C)OC[C@@H](O)c1cnc2c(cnn2-c2ccc(CCC(=O)O)cc2)c1 [Compound 69A]	< 100	< 100	–
O=C(O)c1ccc(-n2ccc3nc([C@@H](O)COC4CCC4)cnc32)cc1 [Compound 47A]	≥ 1000	< 100	–
COC(C)(C)CC[C@H](O)c1cnc2c(cnn2-c2cccc(-c3nnc[nH]3)c2)c1 [Compound 55A]	100 to 1000	< 100	–
CCOC(C)(C)C(O)c1cnc2c(cnn2-c2cccc(-c3nnc[nH]3)c2)c1 (single isomer, unassigned) [Compound 34A]	–	< 100	< 100
CC(C)OC[C@@H](O)c1cnc2c(cnn2-c2ccc3nc(N4CCOCC4)nn3c2)c1 [Compound 60A]	< 100	< 100	–
CC(C)OC[C@@H](O)c1cnc2c(cnn2-c2ccc(CCCC(=O)O)c(F)c2)c1 [Compound 77A]	< 100	< 100	–
O[C@H](c1cnc2c(cnn2-c2cccc(-c3nnc[nH]3)c2)c1)C1(OCC(F)F)CC1 [Compound 73A]	100 to 1000	< 100	–
